The record followed here is a melting point compilation (Tetko et al.; mined from patent text by program, amines drawn as free bases though some values may be those of a salt).

What is called melting point is the temperature of the solid-liquid transition.

Regarding `CCOC(=O)c1cc(SCc2ccccc2)c(Cl)c(S(N)(=O)=O)c1`, the melting point is 182 °C.
The result for `COC(=O)CC[C@@H](Cc1cn(CCCc2ccccc2)c2ccccc12)NC(=O)CCCCCCc1ccccc1` reads 79.4 to 81 °C.
The result for `COc1ccc(Cc2n[nH]c3c2c(=O)n(-c2ccccc2)c2ncccc32)cc1OC` reads 230 to 232 °C; that for `CN(C)c1ccc(C=Cc2ccc(N)cc2)cc1`, 168 °C; that for `CC(=O)Nc1cccc2c1C(C#N)C2` (configuration not stated), under 50 °C.
As to `C=CCOC(=O)c1ccc(OC(=O)C2CC3=C(C2)C(C)(C)CCC3(C)C)cc1`, the melting point lay within 48 to 50 °C.
The figure for `CC(C)=NNc1cc2c(nn1)CCN(C(=O)CC(c1ccccc1)c1ccccc1)C2` is 172 to 175 °C; for `CCOC(=O)C(F)(F)C(I)c1ccc(OC)cc1` (configuration not stated) it is 44 to 45 °C.
The compound `COc1ccc(C=CC(=O)Nc2ccccc2C(=O)O)cc1O` showed a melting point of 215 to 216 °C.
`O=C(O)C1CCc2cc(Cl)c(C3CCCCC3)cc21` (configuration not stated) gave a melting point of 140 to 143 °C.
`Cc1ccc(F)cc1C(=O)Nc1ccc(C(=O)N2Cc3ccccc3Nc3ncccc32)cn1` displayed a melting point of 102 to 104 °C.
As for `CCCCCCC(C(=O)O)n1cc(Cc2ccccc2)c2cc(-c3ccccc3-c3nn[nH]n3)ccc21` (configuration not stated), the melting point lay within 108 to 112 °C.
As to `C=Cc1nc(C#N)c(C#N)n1CC`, the melting point lay in the range of 66 to 70 °C.
The result for `O=C1CC(c2ccc(O)cc2)=Nc2ccc(N3CCCC3)cc21` reads 304 to 306 °C.
In turn, `S=C1CNC(=S)c2cc(Cl)ccc2N1` came in with a melting point of 273 to 274 °C.
Take `N#CC(C(=O)c1nn(-c2ccccc2)c2c1CSc1ccccc1-2)C(=S)Nc1ccccc1` (configuration not stated): the melting point is 167 to 170 °C.
The result for `Nc1cc(C(=O)O)ccc1C(F)(F)F` reads 175 to 177 °C; that for `CCOCCOCCOCCOc1ccc(OCCCCCCCCCCCCOc2ccccc2)cc1N(CC(=O)O)CC(=O)O`, 58 to 61 °C.
The result for `CCOc1ccc(OC(CCC(=O)O)C2(O)CN3CCC2CC3)cc1` (configuration not stated) reads 75 to 77 °C; that for `CC(C)n1nc(-c2ncc(N)nc2-c2ccccc2Br)ccc1=O`, 189 to 191 °C; that for `O=C(O)c1cc2ccccc2c(=O)s1`, 260 to 262 °C.
The compound `CCn1ncc2c(Cl)c(C(N)=O)cnc21` yielded a melting point of 192 to 193 °C.
`CSC(=O)NCc1c[nH]c2ccccc12` showed a melting point of 110 to 111 °C.
On to `CN1CCN(c2c3c(nc4cc(Cl)ccc24)CCN(C)C3)CC1`, for which the melting point was 114 to 115 °C.
The figure for `O=C(Nc1ccc(-n2nc(C(F)(F)F)cc2C(F)(F)F)cc1)c1ccc(Cl)nc1Cl` is 115 to 117 °C.
In the case of `CC(C)n1nc(-c2cnc(N)nc2-c2ccco2)ccc1=O`, the melting point is 215 °C.
With `CCOC(=O)C1=C(C(=O)OCC)SCCS1`, the melting point was 32 to 36 °C.
For the compound `O=C(O)c1cc2c(s1)S(=O)(=O)CC2`, the melting point lay within 227 to 230 °C.
With `COc1nc2ncnn2c(N2CCC(C)CC2)c1-c1ccc(C)cc1F`, the melting point amounted to 201 °C.
The result for `COc1cccc2c1cc(SCCC(=O)O)n2C` reads 126 to 128 °C.
For `Cc1nc2c(cc1C(=O)NC(=N)N)CCCCC2COS(=O)(=O)O` (configuration not stated), the melting point is 231 to 233 °C.
Regarding `CCOC(=O)Cn1c(-c2cc(Cl)ccn2)nc2cccnc21`, the melting point was 99 to 101 °C.
On to `COC(=O)c1ccc(SC)cn1`, for which the melting point lay within 71 to 73 °C.
The compound `COc1ccc(N2CCN(c3ccc(OC)nc3-c3ccc(C(C)(C)O)cc3)CC2)cc1` displayed a melting point of 138 to 144 °C.
`NCc1ccc(N2CCCN(c3ccc(CCC(=O)O)cc3)C2=O)cc1` displayed a melting point of 229 to 231 °C.
On to `Cc1cc(S(C)(=O)=O)ccc1-n1nc(C(F)(F)F)cc1-c1ccc(-c2ccco2)cc1`, for which the melting point is 205 °C.
For the compound `CC(C)c1cccc(C(C)C)c1-n1nn[nH]c1=O`, the melting point was 177 to 178 °C.
